{"source": "patent EP0195116A2", "about": "“Compound having antibacterial and antimycotic activities, preparation thereof and pharmaceutical compositions containing it” (ISTITUTO FARMACO BIOLOGICO RIPARI GERO S.r.l., priority 1985, dated 1986)", "key": {"Aspergillus fumigatus 1": {"tested_on": "Aspergillus fumigatus 1", "experiment": "In vitro antimycotic activity (M.I.C.), scalar dilutions in liquid medium on Microtiter plates", "type": "cell-based", "procedure": "(§1) The method is that of scalar dilutions of the test compounds on Microtiter plates, in a 1:2 dilution ratio. Suspensions (titre: 10^4) of fungal sporae and Candida cells, grown on Sabouraud, and Dextrose Agar, were collected at the moment of use in the same medium used for the test and inoculated by means of a multi inoculation Microtiter device.\n(§2) M.I.C. values were determined by means of visual observation of fungal growth respectively after 24 hours (Candida albicans) and 48 and 72 hours (dermatophytes) incubation at 24°C."}, "Aspergillus fumigatus 2": {"tested_on": "Aspergillus fumigatus 2", "experiment": "In vitro antimycotic activity (M.I.C.), scalar dilutions in liquid medium on Microtiter plates", "type": "cell-based", "procedure": "as §1, §2"}, "Candida albicans 1": {"tested_on": "Candida albicans 1", "experiment": "In vitro antimycotic activity (M.I.C.), scalar dilutions in liquid medium on Microtiter plates", "type": "cell-based", "procedure": "as §1, §2"}, "Candida albicans 2": {"tested_on": "Candida albicans 2", "experiment": "In vitro antimycotic activity (M.I.C.), scalar dilutions in liquid medium on Microtiter plates", "type": "cell-based", "procedure": "as §1, §2"}, "Candida albicans 3": {"tested_on": "Candida albicans 3", "experiment": "In vitro antimycotic activity (M.I.C.), scalar dilutions in liquid medium on Microtiter plates", "type": "cell-based", "procedure": "as §1, §2"}, "[1]": {"tested_on": "Epidermophyton floccosum 1", "experiment": "In vitro antimycotic activity (M.I.C.), scalar dilutions in liquid medium on Microtiter plates", "type": "cell-based", "procedure": "as §1, §2"}, "Microsporum canis 1": {"tested_on": "Microsporum canis 1", "experiment": "In vitro antimycotic activity (M.I.C.), scalar dilutions in liquid medium on Microtiter plates", "type": "cell-based", "procedure": "as §1, §2"}, "Microsporum canis 2": {"tested_on": "Microsporum canis 2", "experiment": "In vitro antimycotic activity (M.I.C.), scalar dilutions in liquid medium on Microtiter plates", "type": "cell-based", "details": "hospital isolate, 48 and 72 hours incubation at 24°C", "procedure": "as §1, §2"}, "[2]": {"tested_on": "Tricophyton mentagrophites 1", "experiment": "In vitro antimycotic activity (M.I.C.), scalar dilutions in liquid medium on Microtiter plates", "type": "cell-based", "procedure": "as §1, §2"}, "Escherichia coli OMI 16": {"tested_on": "Escherichia coli OMI 16", "experiment": "In vitro antibacterial activity (M.I.C.), scalar dilutions on agar plates", "type": "cell-based", "details": "18 hours incubation at 37°C", "procedure": "(§3) The method was that of scalar dilutions of the test products on agar plates, in a 1:2 dilution ratio. Bacterial suspensions grown overnight in Brain Heart Infusion DIFCO, were diluted 1/100 in new culture medium and inoculated by means of a multiinoculation device.\n(§4) M.I.C. values were determined by visual observation of bacterial growth, after 18 hours incubation, at 37°C."}, "Escherichia coli OMI 17": {"tested_on": "Escherichia coli OMI 17", "experiment": "In vitro antibacterial activity (M.I.C.), scalar dilutions on agar plates", "type": "cell-based", "details": "18 hours incubation at 37°C", "procedure": "as §3, §4"}, "[3]": {"tested_on": "Klebsiella pneumoniae ATCC 1003", "experiment": "In vitro antibacterial activity (M.I.C.), scalar dilutions on agar plates", "type": "cell-based", "procedure": "as §3, §4"}, "Proteus vulgaris OMI 4": {"tested_on": "Proteus vulgaris OMI 4", "experiment": "In vitro antibacterial activity (M.I.C.), scalar dilutions on agar plates", "type": "cell-based", "details": "18 hours incubation at 37°C", "procedure": "as §3, §4"}, "[4]": {"tested_on": "Pseudomonas aeruginosa OMI 1", "experiment": "In vitro antibacterial activity (M.I.C.), scalar dilutions on agar plates", "type": "cell-based", "details": "18 hours incubation at 37°C", "procedure": "as §3, §4"}, "Sarcina lutea ATCC 9341": {"tested_on": "Sarcina lutea ATCC 9341", "experiment": "In vitro antibacterial activity (M.I.C.), scalar dilutions on agar plates", "type": "cell-based", "details": "18 hours incubation at 37°C", "procedure": "as §3, §4"}, "Staphylococcus aureus 35": {"tested_on": "Staphylococcus aureus 35", "experiment": "In vitro antibacterial activity (M.I.C.), scalar dilutions on agar plates", "type": "cell-based", "procedure": "as §3, §4"}, "Staphylococcus aureus 38": {"tested_on": "Staphylococcus aureus 38", "experiment": "In vitro antibacterial activity (M.I.C.), scalar dilutions on agar plates", "type": "cell-based", "procedure": "as §3, §4"}, "[5]": {"tested_on": "Staphylococcus aureus ATCC 9144", "experiment": "In vitro antibacterial activity (M.I.C.), scalar dilutions on agar plates", "type": "cell-based", "procedure": "as §3, §4"}, "[6]": {"tested_on": "Streptococcus faecalis OMI 1", "experiment": "In vitro antibacterial activity (M.I.C.), scalar dilutions on agar plates", "type": "cell-based", "details": "18 hours incubation at 37°C", "procedure": "as §3, §4"}, "[7]": {"tested_on": "Streptococcus faecalis OMI 2", "experiment": "In vitro antibacterial activity (M.I.C.), scalar dilutions on agar plates", "type": "cell-based", "details": "18 hours incubation at 37°C", "procedure": "as §3, §4"}, "[8]": {"tested_on": "Streptococcus pyogenes A/1", "experiment": "In vitro antibacterial activity (M.I.C.), scalar dilutions on agar plates", "type": "cell-based", "procedure": "as §3, §4"}, "Streptococcus pyogenes C": {"tested_on": "Streptococcus pyogenes C", "experiment": "In vitro antibacterial activity (M.I.C.), scalar dilutions on agar plates", "type": "cell-based", "procedure": "as §3, §4"}, "[9]": {"experiment": "Pharmacokinetics in the rat by oral administration (serum and urinary concentrations by agar-well diffusion bioassay)"}}}
{"molecule": "1-{[2-(2,4-dichlorophenyl)-2-(2,4-dichlorophenyl)methoxy]ethyl}-1-pivaloyloxymethyl-lH-imidazolium chloride [RG 024]", "values": [{"measurement": "M.I.C.", "setting": "Aspergillus fumigatus 1; Aspergillus fumigatus 1, hospital isolate, liquid medium, incubation at 24°C", "result": 6.25, "unit": "µg/mL"}, {"measurement": "M.I.C.", "setting": "Aspergillus fumigatus 2; Aspergillus fumigatus 2, hospital isolate, liquid medium, incubation at 24°C", "result": 3.12, "unit": "µg/mL"}, {"measurement": "M.I.C.", "setting": "Candida albicans 1; Candida albicans 1, hospital isolate, liquid medium, 24 hours incubation at 24°C", "result": 1.56, "unit": "µg/mL"}, {"measurement": "M.I.C.", "setting": "Candida albicans 2; Candida albicans 2, hospital isolate, liquid medium, 24 hours incubation at 24°C", "result": 0.39, "unit": "µg/mL"}, {"measurement": "M.I.C.", "setting": "Candida albicans 3; Candida albicans 3, hospital isolate, liquid medium, 24 hours incubation at 24°C", "result": 0.78, "unit": "µg/mL"}, {"measurement": "M.I.C.", "setting": "[1]; Epidermophyton floccosum 1, hospital isolate, liquid medium, 48 and 72 hours incubation at 24°C", "result": 1.56, "unit": "µg/mL"}, {"measurement": "M.I.C.", "setting": "Microsporum canis 1; Microsporum canis 1, hospital isolate, liquid medium, 48 and 72 hours incubation at 24°C", "result": 12.5, "unit": "µg/mL"}, {"measurement": "M.I.C.", "setting": "Microsporum canis 2", "result": 6.12, "unit": "µg/mL"}, {"measurement": "M.I.C.", "setting": "[2]; Tricophyton mentagrophites 1, hospital isolate, liquid medium, 48 and 72 hours incubation at 24°C", "result": 0.78, "unit": "µg/mL"}, {"measurement": "M.I.C.", "setting": "Escherichia coli OMI 16; Isosensitest agar", "result": 6.25, "unit": "µg/mL"}, {"measurement": "M.I.C.", "setting": "Escherichia coli OMI 17; Isosensitest agar", "result": 6.25, "unit": "µg/mL"}, {"measurement": "M.I.C.", "setting": "[3]; Klebsiella pneumoniae ATCC 1003, Isosensitest agar, 18 hours incubation at 37°C", "result": 12.5, "unit": "µg/mL"}, {"measurement": "M.I.C.", "setting": "Proteus vulgaris OMI 4; Isosensitest agar", "result": 50, "unit": "µg/mL"}, {"measurement": "M.I.C.", "setting": "[4]; Isosensitest agar", "result": ">200", "unit": "µg/mL"}, {"measurement": "M.I.C.", "setting": "Sarcina lutea ATCC 9341; Isosensitest agar", "result": 0.19, "unit": "µg/mL"}, {"measurement": "M.I.C.", "setting": "Staphylococcus aureus 35; Staphylococcus aureus 35, Isosensitest agar, 18 hours incubation at 37°C", "result": 0.39, "unit": "µg/mL"}, {"measurement": "M.I.C.", "setting": "Staphylococcus aureus 38; Staphylococcus aureus 38, Isosensitest agar, 18 hours incubation at 37°C", "result": 0.19, "unit": "µg/mL"}, {"measurement": "M.I.C.", "setting": "[5]; Staphylococcus aureus ATCC 9144, Isosensitest agar, 18 hours incubation at 37°C", "result": 0.19, "unit": "µg/mL"}, {"measurement": "M.I.C.", "setting": "[6]; Isosensitest agar", "result": 6.25, "unit": "µg/mL"}, {"measurement": "M.I.C.", "setting": "[7]; Isosensitest agar", "result": 6.25, "unit": "µg/mL"}, {"measurement": "M.I.C.", "setting": "[8]; Streptococcus pyogenes A/1, Isosensitest agar, 18 hours incubation at 37°C", "result": 0.19, "unit": "µg/mL"}, {"measurement": "M.I.C.", "setting": "Streptococcus pyogenes C; Streptococcus pyogenes C, Isosensitest agar, 18 hours incubation at 37°C", "result": 0.39, "unit": "µg/mL"}]}
{"molecule": "Clc1ccc(COC(Cn2ccnc2)c2ccc(Cl)cc2Cl)c(Cl)c1", "note": "(stereo not drawn) [miconazole]", "values": [{"measurement": "MIC", "setting": "Aspergillus fumigatus 1; Aspergillus fumigatus, 1", "result": 6.25, "unit": "µg/mL"}, {"measurement": "MIC", "setting": "Aspergillus fumigatus 2; Aspergillus fumigatus, 2", "result": 6.25, "unit": "µg/mL"}, {"measurement": "MIC", "setting": "Candida albicans 1; Candida albicans, 1, 24 h", "result": 3.12, "unit": "µg/mL"}, {"measurement": "MIC", "setting": "Candida albicans 2; Candida albicans, 2, 24 h", "result": 1.56, "unit": "µg/mL"}, {"measurement": "MIC", "setting": "Candida albicans 3; Candida albicans, 3, 24 h", "result": 1.56, "unit": "µg/mL"}, {"measurement": "MIC", "setting": "[1]; Epidermophyton floccosum, 1", "result": 1.56, "unit": "µg/mL"}, {"measurement": "MIC", "setting": "Microsporum canis 1; Microsporum canis, 1", "result": 12.5, "unit": "µg/mL"}, {"measurement": "MIC", "setting": "Microsporum canis 2", "result": 6.12, "unit": "µg/mL"}, {"measurement": "MIC", "setting": "[2]", "result": 1.56, "unit": "µg/mL"}, {"measurement": "MIC", "setting": "Escherichia coli OMI 16; OMI16, Isosensitest agar", "result": 25, "unit": "µg/mL"}, {"measurement": "MIC", "setting": "Escherichia coli OMI 17; OMI17, Isosensitest agar", "result": 12.5, "unit": "µg/mL"}, {"measurement": "MIC", "setting": "[3]; Klebsiella pneumoniae, ATCC1003, 18 h", "result": 25, "unit": "µg/mL"}, {"measurement": "MIC", "setting": "Proteus vulgaris OMI 4; OMI4, Isosensitest agar", "result": 100, "unit": "µg/mL"}, {"measurement": "MIC", "setting": "[4]; OMI1, Isosensitest agar", "result": "> 200", "unit": "µg/mL"}, {"measurement": "MIC", "setting": "Sarcina lutea ATCC 9341; Micrococcus luteus, ATCC9341, Isosensitest agar", "result": 0.19, "unit": "µg/mL"}, {"measurement": "MIC", "setting": "Staphylococcus aureus 35; Staphylococcus aureus, 35, 18 h", "result": 6.25, "unit": "µg/mL"}, {"measurement": "MIC", "setting": "Staphylococcus aureus 38; Staphylococcus aureus, 38, 18 h", "result": 0.39, "unit": "µg/mL"}, {"measurement": "MIC", "setting": "[5]; Staphylococcus aureus, ATCC9144, 18 h", "result": 0.39, "unit": "µg/mL"}, {"measurement": "MIC", "setting": "[6]; Enterococcus faecalis, OMI1, Isosensitest agar", "result": 12.5, "unit": "µg/mL"}, {"measurement": "MIC", "setting": "[7]; Enterococcus faecalis, OMI2, Isosensitest agar", "result": 6.25, "unit": "µg/mL"}, {"measurement": "MIC", "setting": "[8]; Streptococcus pyogenes, 18 h", "result": 0.39, "unit": "µg/mL"}, {"measurement": "MIC", "setting": "Streptococcus pyogenes C; Streptococcus pyogenes, 18 h", "result": 0.39, "unit": "µg/mL"}, {"measurement": "presence / detectability of the compound over time", "setting": "[9]", "result": "may not be detected in significant amounts after the 6 ^th hour"}]}
